Where a SMILES comes first, the peptide text is derived from it. [ ]: non-standard residue; d: D form. hTyr = N[C@@H](CCc1ccc(O)cc1)C(=O)O
Tests used:
Assay type in all cases: biochemical
[1] = target: T1, human neutrophil elastase (Homo sapiens, UniProt P08246); assay: Inhibition of human neutrophil elastase (hydrolysis of MeOSuc-AAPV-pNA); settings: substrate MeOSuc-AAPV-pNA 0.3 mM, enzyme 10 nM, 37° C., pH 8; read-out: Human neutrophil elastase (hNE) IC50
T1 construct: purchased Serva Electrophoresis, Germany
T1 sequence (P08246 30-267): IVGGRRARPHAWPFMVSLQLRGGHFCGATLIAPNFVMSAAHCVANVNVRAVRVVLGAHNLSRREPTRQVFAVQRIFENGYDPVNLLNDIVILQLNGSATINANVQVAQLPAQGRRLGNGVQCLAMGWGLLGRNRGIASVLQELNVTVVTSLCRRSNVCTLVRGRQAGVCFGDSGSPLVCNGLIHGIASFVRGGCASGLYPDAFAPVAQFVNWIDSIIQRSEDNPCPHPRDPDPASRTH
Summary of the method: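 MeOSuc-AAPV-pNA (0.3 mM) hydrolysis by 10 nM enzyme at 37° C with serially diluted peptides (1% DMSO) in 50 mM Tris pH 8, 300 mM NaCl, 0.01% Tween20. pNA release read at 405 nm over 30 minutes; IC50 from 4-parameter Hill fit.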

[2] = target: T2, human proteinase 3 (Homo sapiens, UniProt P24158); assay: Inhibition of human proteinase 3 (substrate Boc-Ala-Ala-Nva-SBzl)
T2 construct: purchased Elastin Products Company, USA
T2 sequence (P24158 28-248): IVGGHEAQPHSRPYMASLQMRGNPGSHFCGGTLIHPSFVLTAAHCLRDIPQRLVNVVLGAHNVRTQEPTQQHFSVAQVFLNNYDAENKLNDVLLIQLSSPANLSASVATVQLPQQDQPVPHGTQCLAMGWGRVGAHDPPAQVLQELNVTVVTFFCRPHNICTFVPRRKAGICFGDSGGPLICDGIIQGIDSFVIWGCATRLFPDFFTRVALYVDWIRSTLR
Summary of the method: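 Enzyme at 10 nM incubated at 37°C with 1 mM thiobenzyl ester substrate, 250 μM 4,4′-dithiodipyridine and serial peptide dilutions (0.5% DMSO) in Tris pH 7.4, 150 mM NaCl, 0.01% Tween20. Absorbance at 340 nm followed over 30 min; IC50 from 4-parameter Hill fit.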

[3] = target: T3, porcine pancreatic elastase (Sus scrofa, UniProt P00772); assay: Inhibition of porcine pancreatic elastase (hydrolysis of MeOSuc-AAA-pNA)
T3 construct: purchased Sigma, USA
T3 sequence (P00772 27-266): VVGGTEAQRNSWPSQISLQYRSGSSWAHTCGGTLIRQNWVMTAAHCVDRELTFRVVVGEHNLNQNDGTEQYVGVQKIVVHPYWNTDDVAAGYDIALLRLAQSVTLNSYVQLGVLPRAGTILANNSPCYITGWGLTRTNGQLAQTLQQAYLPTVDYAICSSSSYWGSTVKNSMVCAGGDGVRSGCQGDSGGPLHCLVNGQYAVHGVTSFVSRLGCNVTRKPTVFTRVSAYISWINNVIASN
Summary of the method: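 Elastase (15 nM) incubated at 37 °C with 1 mM MeOSuc-AAA-pNA and serially diluted peptides (0.5% DMSO) in 50 mM Tris pH 8, 100 mM NaCl, 0.01% Tween20. pNA release read at 405 nm over 30 min; IC50 from 4-parameter Hill fit.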

Q: Which results are given for `CC[C@H](C)[C@@H]1NC(=O)[C@H](CO)NC(=O)[C@H](C)NC(=O)[C@H]([C@@H](C)O)NC(=O)[C@H](CCc2ccc(O)cc2)NC(=O)[C@H](CCCNC(=N)N)NC(=O)[C@H](CCC(=O)O)NC(=O)[C@H]2CCCN2C(=O)[C@H]([C@@H](C)O)NC(=O)[C@H](CCCCN)NC(=O)[C@H](CCC(N)=O)NC(=O)[C@@H]2CCCN2C(=O)[C@@H]2CCCN2C1=O` [Example 49] (cyclo(R[hTyr]TASIPPQKT[dP]E))?
A: IC50 [1]: 0.0153 µM; hNE/hPr3 selectivity ([2]; ratio of hPr3 IC50 to hNE IC50): 627; IC50 ([2]; substrate Boc-Ala-Ala-Nva-SBzl 1 mM, enzyme 10 nM, 37° C., pH7.4, read-out: Human proteinase 3 (hPr3) IC50): 9.6 µM; hNE/PPE selectivity ([3]; ratio of PPE IC50 to hNE IC50): 2490; IC50 ([3]; substrate MeOSuc-AAA-pNA 1 mM, enzyme 15 nM, 37° C., pH8, read-out: Porcine pancreatic elastase (PPE) IC50): 38.1 µM

Source: patent US10273267B2, “Beta-hairpin peptidomimetics as selective elastase inhibitors” (POLYPHOR AG, priority 2013, dated 2019)
